Experimental data reported in ChEMBL document CHEMBL1138894, “Synthesis and biological investigation of S-aryl-S-DABO derivatives as HIV-1 inhibitors” (Bioorg Med Chem Lett, 2006).
The source made the active and inactive calls. The rule behind the calls is not given here.

Legend:
[1] = tested on: Human immunodeficiency virus type 1 reverse transcriptase (Human immunodeficiency virus 1), Q72547 [Y181I]; experiment: Inhibition of HIV1 reverse transcriptase Y181I mutant at 400uM
MT4 = experiment: Cytotoxicity against MT4 cells by MTT assay; assay type: functional; details: Homo sapiens
[2] = tested on: Human immunodeficiency virus type 1 reverse transcriptase (Human immunodeficiency virus 1), Q72547 [K103N]; experiment: Inhibition of HIV1 reverse transcriptase K103N mutant at 400uM
[3] = biological target: Human immunodeficiency virus type 1 reverse transcriptase (Human immunodeficiency virus 1) (UniProt Q72547)
[4] = biological target: Human immunodeficiency virus type 1 reverse transcriptase (Human immunodeficiency virus 1) (UniProt Q72547); experiment: Inhibition of wild type HIV1 reverse transcriptase at 400uM
[5] = biological target: Human immunodeficiency virus type 1 reverse transcriptase (Human immunodeficiency virus 1) (UniProt Q72547); experiment: Selectivity index (CC50/EC50); assay type: functional

SMILES	Activity [1]	CC50 (MT4) [µM]	Activity [2]	ID50 [3] [µM]	Activity [4]	Selectivity index [5]
COc1ccc(Sc2nc(O)c(C)c(Cc3c(Cl)cccc3Cl)n2)cn1	inactive	> 61.3	inactive	3.5		
Cc1c(O)nc(Sc2ccc(F)cc2F)nc1Cc1c(F)cccc1F	inactive	> 65.8	inactive	30		
Cc1ccnc2c1NC(=O)c1cccnc1N2C1CC1 [NEVIRAPINE]		> 7.5				
O=C1Nc2ccc(Cl)cc2C(C#CC2CC2)(C(F)(F)F)O1 (single isomer, unassigned) [EFAVIRENZ]		> 0.32				
Cc1c(O)nc(Sc2ccccc2)nc1Cc1c(Cl)cccc1Cl	inactive	> 66.3	inactive	36		
Cc1c(O)nc(Sc2ccc(F)cc2F)nc1Cc1c(Cl)cccc1Cl	inactive	> 60.5	inactive	10		
COc1ccc(Sc2nc(O)c(C)c(Cc3c(Cl)cccc3Cl)n2)cc1	inactive	> 61.4	inactive		inactive	
Cc1cn([C@H]2C[C@H](N=[N+]=[N-])[C@@H](CO)O2)c(=O)[nH]c1=O [ZIDOVUDINE]		3.7				
COc1ccc(Sc2nc(O)c(C)c(Cc3c(F)cccc3F)n2)cc1	inactive	57.5	inactive		inactive	
Cc1c(O)nc(Sc2ccccc2)nc1Cc1c(F)cccc1F	inactive	> 72.7	inactive	32		> 835
Cc1c(O)nc(Sc2ccc(Cl)cc2)nc1Cc1c(F)cccc1F	inactive	> 66.1	inactive	22		
Cc1c(O)nc(Sc2ccc(C#N)cc2)nc1Cc1c(Cl)cccc1Cl	inactive	27.6	inactive	23		
